These results are taken from patent US20240158418A1 (C4 Therapeutics, Inc., priority 2021, published 2024).

Series [1] can be described thus: Tolerability / body weight change on oral dosing in tumor-bearing mice. In kind it is in vivo. The method, then: Compound 1 was dosed at 20, 50, or 100 mg/kg/day and was formulated in PEG400 (20% v/v)+80% v/v SBECD (25% w/v) in ddH2O. […] Body weight and MTV were measured on a 2× weekly schedule. Statistical analysis was performed using a one-way ANOVA. Data are expressed as MTV±SEM.
Compound 1 and Compound 2 were dosed at 20, 50, or 100 mg/kg/day and was formulated in PEG400 (20% v/v)+80% v/v SBECD (25% w/v) in ddH2O. […] Body weight and MTV were measured on a 2× weekly schedule. Statistical analysis was performed using a one-way ANOVA followed by Dunnett's multiple comparison test. Data are expressed as MTV±SEM.
2×10^5 luciferase-expressing NCI-H1975-luc tumor cells suspended in 2 μL RPMI-1640 media were injected into the right forebrain of female BALB/c nude mice. Tumor growth was monitored using imaging analysis. Mice were injected intraperitoneally with 15 mg/mL of D-luciferin and anesthetized with 1-2% isoflurane inhalation. 10 minutes post luciferin injection, mice were imaged using IVIS Lumina III (Perkin Elmer) and total bioluminescence signal (BLI, photons/s) was measured in a region of interest (ROI). BLI from ROI were quantified and used as an indicator of tumor burden. […] Body weight and MTV were measured on a 2× weekly schedule. Statistical analysis was calculated using the Mann-Whitney U test. Data are expressed as bioluminescent signal (photons/s). […]

The subject of series [2] is BaF3 cells expressing EGFR L858R-T790M-L718Q. Description: Ba/F3 EGFR cell viability (CellTiter-Glo), L858R-T790M-L718Q. To be noted: Mus musculus, read-out: CTGlo (GI50). It counts as cell-based. The text has this:
(§1) RPMI 1640 media, cell culture flasks, and 384-well microplates were purchased from VWR (Radnor, PA, USA). Fetal bovine serum (FBS) was purchased from Life Technologies (Carlsbad, CA, USA) and CellTiter-Glo® was purchased from Promega (Madison, WI, USA). The Ba/F3 parental cell line was purchased from CrownBio (Santa Clara, CA). BaF3 cell lines ectopically expressing the EGFR mutations L858R, L858R-T790M, L858R-C797S, and L858R-T790M-C797S were purchased from CrownBio and EGFR mutations L858R-L718Q, L858R-T790M-L718Q, L858R-L792H, and L858R-T790M-L792H, were purchased from Signosis (Santa Clara, CA).
(§2) Cell viability was assessed based on the quantification of ATP using the CellTiter-Glo® assay (Promega, Madison, WI, USA). To determine the effect of compounds on cell viability, all Ba/F3 cell lines were plated at a cell density of 2000 cells/well in 384-well plates using RPMI 1640+10% FBS and treated with compounds of interest using a 10-point half-log dilution series in duplicate for 72 hours, with the highest dose set at […]. CellTiter-Glo® reagent was then added and luminescence signals were measured using an EnVision™ Multimode plate reader (Perkin Elmer, Santa Clara, CA). For data normalization, cells untreated with the test compounds at Time=72 hours were set to 100% (equivalent to maximal cell growth after 72 hours); cells untreated with the test compounds at Time=0 hours were set to 0% (equivalent to cytostasis); and media-only wells were set to −100% (equivalent to complete cytotoxicity). % Viability was determined by normalizing the signal with positive and DMSO treated negative controls on the same microtiter plate. The half-maximal inhibition of cell growth (GI50) is computed from where the fitted curve crosses 50% while the half-maximal lethal dose (LD50) is computed from where the fitted curve crosses −50%.
(ATP-based viability assays read luminescence as a measure of living cells.)

The subject of series [3] is BaF3 cells expressing EGFR L858R-L718Q. Description: Ba/F3 EGFR cell viability (CellTiter-Glo), L858R-L718Q. In kind it is cell-based. To be noted: Mus musculus, read-out: CTGlo (GI50).
Excerpt: as §1, §2

By GI50 is commonly meant the concentration at which growth is held to half of that of the control.

Turning to `O=C1CC[C@H](Nc2ccc(N3CCC(O)(CC(=O)N4CC5(C4)CN(c4ccc(-c6cc(F)c7c(c6)C(=O)N(C(C(=O)Nc6nccs6)c6ncn8c6CCC8)C7)cc4)C5)CC3)c(F)c2)C(=O)N1` (stereo partly drawn) [Compound 1, 2-(6,7-dihydro-5H-pyrrolo[1,2-c]imidazol-1-yl)-2-[6-[4-[2-[2-[1-[4-[[(3S)-2,6-dioxo-3-piperidyl]amino]-2-fluoro-phenyl]-4-hydroxy-4-piperidyl]acetyl]-2,6-diazaspiro[3.3]heptan-6-yl]phenyl]-4-fluoro-1-oxo-isoindolin-2-yl]-N-thiazol-2-yl-acetamide], the “tolerability of oral dosing” value in series [1] is “well tolerated”. Besides, the figures for the GI50 in series [2] and in series [3] were 44 nM and 24 nM, respectively.

In the case of `Cn1nc(N2CCC(=O)NC2=O)c2ccc([C@H]3CCN(CC(=O)N4CC5(C4)CN(c4ccc(-c6cc(F)c7c(c6)C(=O)N(C(C(=O)Nc6nccs6)c6ncn8c6CCC8)C7)cc4)C5)CC3(F)F)cc21` (stereo partly drawn) [Compound 2, 2-(6,7-dihydro-5H-pyrrolo[1,2-c]imidazol-1-yl)-2-[6-[4-[2-[2-[(4R)-4-[3-(2,4-dioxohexahydropyrimidin-1-yl)-1-methyl-indazol-6-yl]-3,3-difluoro-1-piperidyl]acetyl]-2,6-diazaspiro[3.3]heptan-6-yl]phenyl]-4-fluoro-1-oxo-isoindolin-2-yl]-N-thiazol-2-yl-acetamide], the “tolerability of oral dosing” value in series [1] was “well tolerated”. Besides, the GI50 was 22 nM in series [2] and 6 nM in series [3].
